{"source": "patent US11214803B2", "about": "“Modulators of YAP1 expression” (Ionis Pharmaceuticals, Inc., priority 2019, dated 2022)", "key": {"[1]": {"assay": "Tolerability in CD-1 mice, body and organ weights (Example 17)", "type": "in vivo", "conditions": "male CD-1 mice, 50 mg/kg s.c. twice a week for four weeks (8 treatments), end of study (day 27)", "procedure": "(§1) Groups of four male CD-1 mice at 4-5 weeks of age (obtained from Charles River) were injected subcutaneously twice a week for four weeks (for a total of 8 treatments) with 50 mg/kg of modified oligonucleotides. One group of male CD-1 mice was injected with PBS. Mice were euthanized on day 27 post start of treatment (24 hrs following the final administration).\n(§2) Body weights of CD-1 mice were measured at the end of the study, and the average body weight for each group is presented in the table below. Modified oligonucleotides that caused any changes in organ weights outside the expected range for modified oligonucleotides were excluded from further studies."}, "[2]": {"assay": "Tolerability in CD-1 mice, plasma chemistry markers (Example 17)", "type": "in vivo", "conditions": "male CD-1 mice, 50 mg/kg s.c. twice a week for four weeks (8 treatments), day 27", "procedure": "(§3) CD-1 mice were treated with modified oligonucleotides selected from studies described above and evaluated for changes in the levels of various plasma chemistry markers.\nas §1"}, "[3]": {"assay": "Tolerability in Sprague-Dawley rats, plasma chemistry markers (Example 20)", "type": "in vivo", "conditions": "male Sprague-Dawley rats, 50 mg/kg s.c. weekly for 6 weeks (7 doses), 48 hours after last dose", "procedure": "Sprague-Dawley rats are a multipurpose model used for safety and efficacy evaluations. The rats were treated with Ionis modified oligonucleotides from the studies described in the Examples above and evaluated for changes in the levels of various plasma chemistry markers."}, "[4]": {"assay": "Tolerability in Sprague-Dawley rats, kidney function, urine total protein to creatinine ratio (Example 20)", "conditions": "male Sprague-Dawley rats, 50 mg/kg subcutaneously weekly for 6 weeks (total 7 doses)", "method": "Male Sprague-Dawley rats were maintained on a 12-hour light/dark cycle and fed ad libitum with Purina normal rat chow. Groups of 4 Sprague-Dawley rats each were weekly injected subcutaneously with 50 mg/kg of Ionis oligonucleotide for 6 weeks (total 7 doses). Forty-eight hours after the last dose, the rats were euthanized; and organs, urine and plasma were harvested for further analysis.\nTo evaluate the effect of Ionis oligonucleotides on kidney function, urinary levels of total protein and creatinine were measured using an automated clinical chemistry analyzer (Hitachi Olympus AU400c, Melville, N.Y.)."}, "[5]": {"assay": "Tolerability in Sprague-Dawley rats, body and organ weights (Example 20)", "type": "in vivo", "conditions": "male Sprague-Dawley rats, 50 mg/kg s.c. weekly for 6 weeks (7 doses); for Kidney weight / Liver weight / Spleen weight: end of study; for body weight: terminal, prior to necropsy", "procedure": "Terminal body weight was measured prior to necropsy. Ionis oligonucleotides that caused any changes in organ weights outside the expected range for modified oligonucleotides were excluded from further studies."}, "[6]": {"assay": "Tolerability in CD-1 mice, body and organ weights (Example 18)", "type": "in vivo", "conditions": "male CD-1 mice, 50 mg/kg s.c. twice a week (total of 9 treatments), end of study (day 34)", "procedure": "as §1, with “5-6” for “4-5”, “9” for “8”, “34” for “27”, “hours” for “hrs”\nas §2"}, "Yap1 mRNA [7]": {"system": "Yap1 mRNA", "assay": "Dose-dependent inhibition of human Yap1 in A-431 cells (Example 8, 10,000 cells per well, RTS4814)", "type": "cell-based", "conditions": "free uptake, approximately 48 hours, RTS4814; for Yap1 mRNA, % UTC: A-431 cells, 10,000 cells per well", "how_it_was_run": "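Yap1 mRNA, normalized to RIBOGREEN total RNA and expressed as % untreated control, was read with RTS4814 about 48 h after free-uptake oligonucleotide treatment of A-431 cells at 10,000 cells/well. IC50 derived by linear regression of log/linear data.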"}, "[8]": {"assay": "Tolerability in CD-1 mice, plasma chemistry markers (Example 18)", "type": "in vivo", "conditions": "male CD-1 mice, 50 mg/kg s.c. twice a week (total of 9 treatments), day 34", "procedure": "as §3\nas §1, with “5-6” for “4-5”, “9” for “8”, “34” for “27”, “hours” for “hrs”"}, "Yap1 mRNA [9]": {"system": "Yap1 mRNA", "assay": "Inhibition of human Yap1 mRNA in SNU449 hepatocellular carcinoma xenograft tumors (Example 26)", "type": "in vivo", "conditions": "SNU449 xenografts in NSG mice, 50 mg/kg twice weekly for five days, relative to PBS treated animals", "procedure": "A SNU449 hepatocellular carcinoma xenograft tumor model was used to evaluate activity of modified oligonucleotides targeted to human Yap1. Ten million SNU449 cells in 30% matrigel were implanted subcutaneously into the flanks of female NOD Cg-Prkdcscid ll2rgtm1Wjl/SzJ (NSG) mice (from Jackson Laboratory) at 4-6 weeks of age. When tumors reached an average volume of 100 mm^3, approximately two weeks post-implantation, groups of four mice each were administered at 50 mg/kg twice weekly with modified oligonucleotides for five days. Tumors were collected and tested for Yap1 mRNA knockdown by RT-qPCR. Yap1 mRNA levels were measured as previously described using the Human Yap1 primer-probe set RTS4814. Yap1 mRNA levels were normalized to actin-beta content, as measured by primer probe set RTS5002. Results are presented in the tables below as percent control of the amount of Yap1 mRNA relative to PBS treated animals (% control)."}, "[10]": {"assay": "Tolerability in CD-1 mice, body and organ weights (Example 16)", "type": "in vivo", "conditions": "male CD-1 mice, 50 mg/kg s.c. twice a week for four weeks (8 treatments), end of study (day 27)", "procedure": "as §1, §2"}, "Yap1 mRNA [11]": {"system": "Yap1 mRNA", "assay": "Dose-dependent inhibition of human Yap1 in SNU-449 cells (Example 9, RTS36584)", "type": "cell-based", "conditions": "free uptake; for % UTC (Yap1 mRNA): approximately 48 hours", "how_it_was_run": "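Read-out was Yap1 mRNA (primer-probe RTS36584) normalised to total RNA by RIBOGREEN, given as % of untreated cells, with IC50 fitted by linear regression of log/linear data. Oligonucleotides were dosed by free uptake to SNU-449 cells, 10,000/well, for ~48 h.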"}, "[12]": {"assay": "Tolerability in CD-1 mice, plasma chemistry markers (Example 16)", "type": "in vivo", "conditions": "male CD-1 mice, 50 mg/kg s.c. twice a week for four weeks (8 treatments), day 27", "procedure": "as §3, §1"}}, "note": "Strand notation (5' to 3'): a small letter for the sugar, then the base; units joined by * are phosphorothioate-linked, units joined directly phosphodiester-linked; [ ] holds rarer units or linkages, { } end groups; capitals alone tell only the bases. k = constrained ethyl (cEt); [5mC] = 5-methylcytosine; d = 2'-deoxy (DNA)"}
{"substance": "1097224 (k[5mC]*kT*k[5mC]*dT*dT*dA*dT*dA*dT*dG*dG*dT*dT*kT*kT*kG; antisense) [compound 1097224]", "values": [{"measurement": "Kidney weight", "setting": "[1]", "result": 0.54, "unit": "g"}, {"measurement": "Liver weight", "setting": "[1]", "result": 1.93, "unit": "g"}, {"measurement": "Spleen weight", "setting": "[1]", "result": 0.16, "unit": "g"}, {"measurement": "body weight", "setting": "[1]", "result": 37, "unit": "g"}, {"measurement": "ALT", "setting": "[2]", "result": 39, "unit": "U/L"}, {"measurement": "AST", "setting": "[2]", "result": 78, "unit": "U/L"}, {"measurement": "BUN", "setting": "[2]", "result": 21, "unit": "mg/dL"}, {"measurement": "TBIL", "setting": "[2]", "result": 0.09, "unit": "mg/dL"}, {"measurement": "ALB", "setting": "[3]", "result": 1.61, "unit": "g/dL"}, {"measurement": "ALT", "setting": "[3]", "result": 31, "unit": "U/L"}, {"measurement": "AST", "setting": "[3]", "result": 51, "unit": "U/L"}, {"measurement": "BUN", "setting": "[3]", "result": 86, "unit": "mg/dL"}, {"measurement": "TBIL", "setting": "[3]", "result": 0.07, "unit": "mg/dL"}, {"measurement": "URINE P/C ratio (total protein to creatinine ratio)", "setting": "[4]", "result": 87}, {"measurement": "Kidney weight", "setting": "[5]", "result": 4.5, "unit": "g"}, {"measurement": "Liver weight", "setting": "[5]", "result": 13, "unit": "g"}, {"measurement": "Spleen weight", "setting": "[5]", "result": 1.4, "unit": "g"}, {"measurement": "body weight", "setting": "[5]", "result": 316, "unit": "g"}]}
{"substance": "1074755 (k[5mC]*kA*k[5mC]*dT*dT*dT*dT*dA*d[5mC]*dA*dT*dT*dA*kG*kG*kA; antisense) [compound 1074755]", "values": [{"measurement": "Kidney weight", "setting": "[6]", "result": 0.61, "unit": "g"}, {"measurement": "Liver weight", "setting": "[6]", "result": 2.27, "unit": "g"}, {"measurement": "Spleen weight", "setting": "[6]", "result": 0.19, "unit": "g"}, {"measurement": "body weight", "setting": "[6]", "result": 39, "unit": "g"}, {"measurement": "ALB", "setting": "[3]", "result": 2.99, "unit": "g/dL"}, {"measurement": "ALT", "setting": "[3]", "result": 57, "unit": "U/L"}, {"measurement": "AST", "setting": "[3]", "result": 97, "unit": "U/L"}, {"measurement": "BUN", "setting": "[3]", "result": 29, "unit": "mg/dL"}, {"measurement": "TBIL", "setting": "[3]", "result": 0.12, "unit": "mg/dL"}, {"measurement": "Yap1 mRNA, % UTC", "setting": "Yap1 mRNA [7]; 31.3 nM", "result": 28, "unit": "% UTC"}, {"measurement": "Yap1 mRNA, % UTC", "setting": "Yap1 mRNA [7]; 125.0 nM", "result": 9, "unit": "% UTC"}, {"measurement": "Yap1 mRNA, % UTC", "setting": "Yap1 mRNA [7]; 500.0 nM", "result": 5, "unit": "% UTC"}, {"measurement": "Yap1 mRNA, % UTC", "setting": "Yap1 mRNA [7]; 2000.00 nM", "result": 3, "unit": "% UTC"}, {"measurement": "IC50", "setting": "Yap1 mRNA [7]; A-431 cells, linear regression on log/linear plot", "result": "< 20", "unit": "nM"}, {"measurement": "ALT", "setting": "[8]", "result": 88, "unit": "U/L"}, {"measurement": "AST", "setting": "[8]", "result": 104, "unit": "U/L"}, {"measurement": "BUN", "setting": "[8]", "result": 22, "unit": "mg/dL"}, {"measurement": "TBIL", "setting": "[8]", "result": 0.21, "unit": "mg/dL"}, {"measurement": "URINE P/C ratio (total protein to creatinine ratio)", "setting": "[4]", "result": 5}, {"measurement": "Kidney weight", "setting": "[5]", "result": 3.3, "unit": "g"}, {"measurement": "Liver weight", "setting": "[5]", "result": 16, "unit": "g"}, {"measurement": "Spleen weight", "setting": "[5]", "result": 2.1, "unit": "g"}, {"measurement": "body weight", "setting": "[5]", "result": 357, "unit": "g"}, {"measurement": "Yap1 mRNA in tumors, % control", "setting": "Yap1 mRNA [9]", "result": 70, "unit": "% control"}]}
{"substance": "1076187 (kG*kA*kT*dT*dT*dA*dG*dG*dA*dT*dG*d[5mC]*dA*kT*kG*kG; antisense) [compound 1076187]", "values": [{"measurement": "Kidney weight", "setting": "[10]", "result": 0.56, "unit": "g"}, {"measurement": "Liver weight", "setting": "[10]", "result": 1.95, "unit": "g"}, {"measurement": "Spleen weight", "setting": "[10]", "result": 0.14, "unit": "g"}, {"measurement": "body weight", "setting": "[10]", "result": 34, "unit": "g"}, {"measurement": "% UTC (Yap1 mRNA)", "setting": "Yap1 mRNA [11]; 31.3 nM", "result": 68, "unit": "% UTC"}, {"measurement": "% UTC (Yap1 mRNA)", "setting": "Yap1 mRNA [11]; 125.0 nM", "result": 46, "unit": "% UTC"}, {"measurement": "% UTC (Yap1 mRNA)", "setting": "Yap1 mRNA [11]; 500.0 nM", "result": 24, "unit": "% UTC"}, {"measurement": "% UTC (Yap1 mRNA)", "setting": "Yap1 mRNA [11]; 2000.00 nM", "result": 12, "unit": "% UTC"}, {"measurement": "IC50", "setting": "Yap1 mRNA [11]; linear regression on a log/linear plot", "result": 100, "unit": "nM"}, {"measurement": "ALT", "setting": "[12]", "result": 57, "unit": "U/L"}, {"measurement": "AST", "setting": "[12]", "result": 90, "unit": "U/L"}, {"measurement": "Albumin", "setting": "[12]", "result": 2.3, "unit": "g/dL"}, {"measurement": "BUN", "setting": "[12]", "result": 20, "unit": "mg/dL"}, {"measurement": "TBIL", "setting": "[12]", "result": 0.18, "unit": "mg/dL"}, {"measurement": "ALB", "setting": "[3]", "result": 2.91, "unit": "g/dL"}, {"measurement": "ALT", "setting": "[3]", "result": 54, "unit": "U/L"}, {"measurement": "AST", "setting": "[3]", "result": 113, "unit": "U/L"}, {"measurement": "BUN", "setting": "[3]", "result": 21, "unit": "mg/dL"}, {"measurement": "TBIL", "setting": "[3]", "result": 0.10, "unit": "mg/dL"}, {"measurement": "URINE P/C ratio (total protein to creatinine ratio)", "setting": "[4]", "result": 5}, {"measurement": "Kidney weight", "setting": "[5]", "result": 3.0, "unit": "g"}, {"measurement": "Liver weight", "setting": "[5]", "result": 17, "unit": "g"}, {"measurement": "Spleen weight", "setting": "[5]", "result": 1.7, "unit": "g"}, {"measurement": "body weight", "setting": "[5]", "result": 344, "unit": "g"}]}
